Source: patent US12357642B2, “Hazardous agent injection system” (Antares Pharma, Inc., priority 2009, dated 2025)
Where “and” joins values, the source holds several entries; their conditions need not be identical. Equal values may be shown once. Entries after “also recorded” stand apart in the source; their conditions may differ. Read-outs that look alike come from different tables or passages of the source.

Columns and labels:
[1] = cited from earlier work; for average mean serum concentration: pediatric patients with juvenile rheumatoid arthritis
[2] = oral, 5 mg/m^2 per week increased to 10 mg/m^2 per week, 46 patients; cited from earlier work
[3] = cited from earlier work
[4] = cited from earlier work; remark: listed apart in the source
[5] = 15 mg, 10 rheumatoid arthritis patients, cited from earlier work
[6] = tested on: patients with active rheumatoid arthritis; settings: cited from earlier work; for median Disease Activity Score (DAS28) / number of swollen joints / number of tender joints / patients with an ACR20 response: 24 weeks; for patients achieving ACR20: starting dose 15 mg per week; for median Health Assessment Questionnaire (HAQ) score / patients achieving an ACR70 response: week 24; for time to achieve an ACR20 response: same subgroup (n=98); for ACR20 responders: subgroup >1 year between diagnosis and study entry with prior antirheumatic compounds or steroids (n=98)
[7] = tested on: patients with rheumatoid arthritis; settings: cited from earlier work
[8] = tested on: rheumatoid arthritis patients; settings: cited from earlier work
[9] = Pharmacokinetics of methotrexate in minipig plasma after subcutaneous injection with autoinjector or needle/syringe
[10] = Female, Auto injector, SC, Dose Level 12.5, individual animals
[11] = Female, Syringe, SC, Dose Level 12.5, individual animals
[12] = Male, Auto injector, SC, Dose Level 12.5, individual animals
[13] = Male, Syringe, SC, Dose Level 12.5, individual animals

In the case of `CN(Cc1cnc2nc(N)nc(N)c2n1)c1ccc(C(=O)N[C@@H](CCC(=O)O)C(=O)O)cc1` [Methotrexate, L-(+)—N-[p-[[(2,4-Diamino-6-pteridinyl)methyl]methylamino]-benzoyl]glutamic acid], the “initial average distribution volume” value ([1]; after intravenous administration) is listed as “about 0.18 L/kg”, the “absorption from parenteral routes of injection” value ([1]; human, in vivo) is listed as “completely absorbed” and the “average mean serum concentration” value ([1]; at about 1 hour) is listed as “about 0.59 μM”. For the same compound, the “average mean serum concentration” value ([1]; at about 3 hours) was “about 0.29 μM”, the “effect of higher doses” value [2] was “dose-related efficacy response together with a trend toward increased toxicity” and the “average DAS28” value ([3]; after switch from oral to intramuscular administration at 15 mg per week) was 5.2. For the same compound, the “average DAS28” value ([3]; before switch from oral to intramuscular administration at 15 mg per week) was 5.6, the “disease improvement compared to placebo” value ([3]; intramuscular dosage escalated 15 to 45 mg per week, 54 patients who did not achieve DAS28<3.2) was “no difference in disease improvement” and the “peak serum concentrations and bioavailability, intramuscular versus subcutaneous” value ([4]; 12.5 mg to 25 mg per week) was “similar”. For the same compound, the “Tmax after subcutaneous versus intramuscular administration” value ([4]; in 4 out of 5 patients tested) was “faster”, the oral bioavailability ([5]; fasting) was 67% and the oral bioavailability ([5]; fed) was 63%. For the same compound, the “patients classified as ACR20 non-responders” value ([6]; 16 weeks, of the total tested (52 patients)) was 14%, the “median Disease Activity Score (DAS28)” value ([6]; oral) was 3.7 and the “number of swollen joints” value ([6]; oral) was 3. For the same compound, the “number of tender joints” value ([6]; oral) was 6, the “patients with an ACR20 response” value ([6]; oral) was 70% and the “patients achieving ACR20” value ([6]; oral, 16 weeks) was 77%. For the same compound, the “median Health Assessment Questionnaire (HAQ) score” value ([6]; oral) was 0.5, the “patients achieving an ACR70 response” value ([6]; oral) was 33% and the “time to achieve an ACR20 response” value ([6]; oral) was 6 weeks. For the same compound, the ACR20 responders ([6]; oral) was 63%, the “rate of adverse events, subcutaneous versus oral” value ([6]; same dose) was “not accompanied by a significantly higher rate of adverse events” and the “further non-responders with positive ACR20 response after dose increase” value ([6]; subcutaneous dosage increased from 15 mg to 20 mg) was 23%. For the same compound, the “median Disease Activity Score (DAS28)” value ([6]; subcutaneous) was 3.3, the “number of swollen joints” value ([6]; subcutaneous) was 2 and the “number of tender joints” value ([6]; subcutaneous) was 3.5. For the same compound, the “patients with an ACR20 response” value ([6]; subcutaneous) was 78%, the “patients achieving ACR20” value ([6]; subcutaneous, 16 weeks) was 85% and the “median Health Assessment Questionnaire (HAQ) score” value ([6]; subcutaneous) was 0.4. The “patients achieving an ACR70 response” value ([6]; subcutaneous) was 41%, the “time to achieve an ACR20 response” value ([6]; subcutaneous) was 4 weeks and the ACR20 responders ([6]; subcutaneous) was 89%. The “non-responders with positive ACR20 response after switch” value ([6]; switched from 15 mg oral to 15 mg subcutaneous) was 30%, the patients reporting nausea ([7]; after switching to oral) was 48% and the patients reporting nausea ([7]; switched back to intramuscular) was 40%. For the same compound, the “patients judged to have moderate or marked improvement” value ([8]; 10 mg to 15 mg intramuscular once a week, 78 rheumatoid arthritis patients) was “Eighty-two”, the “patients who deteriorated after switch to oral and improved after switching back to intramuscular” value ([8]; of the 48 patients who switched to oral) was 10 patients and the “Methotrexate in samples collected prior to dosing” value ([9]; Female, autoinjector, Day 8, attributed to carryover of the instrument, LLOQ=0.2 ng/mL) was 3.19 ng/mL. The “AUC(0-mx)” value [9, 10] was 2501 ng·mL·h and 3172 ng·mL·h, the “AUC(0-t)” value [9, 10] was 2498 ng·mL·h and 3169 ng·mL·h and the T½ [9, 10] was 3.91 h and 3.95 h. For the same compound, the “AUC(0-t)” value ([9]; Female, Autoinjector, Day 8, individual animals) was 3169 ng·h/mL, the “AUC(0-t)” value ([9]; Female, Needle/Syringe, Day 1, individual animals) was 2669 ng·h/mL and 1831 ng·h/mL and the “AUC(0-mx)” value [9, 11] was 2675 ng·mL·h and 1832 ng·mL·h. For the same compound, the “AUC(0-t)” value [9, 11] was 2669 ng·mL·h and 1831 ng·mL·h, the Tmax [9, 11] was 0.50 h and the T½ [9, 11] was 4.90 h and 2.53 h. The “AUC(0-mx)” value [9, 12] was 1903 ng·mL·h and 1407 ng·mL·h, the “AUC(0-t)” value [9, 12] was 1901 ng·mL·h and 1405 ng·mL·h and the T½ [9, 12] was 2.00 h and 1.81 h. The “AUC(0-t)” value ([9]; Male, Autoinjector, Day 1, individual animals) was 1405 ng·h/mL and 1162 ng·h/mL, the “AUC(0-t)” value ([9]; Male, Needle/Syringe, Day 8, individual animals) was 2016 ng·h/mL and 1324 ng·h/mL and the “AUC(0-t)” value [9, 13] was 2464 ng·mL·h and 2016 ng·mL·h. The Tmax [9, 13] was 0.50 h, the “difference in exposure / PK parameters between males and females” value ([9]; SC 12.5 mg, both devices) was “no marked difference; also recorded: no marked sex-related differences” and the “exposure with autoinjector compared with needle/syringe” value ([9]; SC 12.5 mg, male and female minipigs) was “very similar; also recorded: comparable”. The “time at which maximal plasma concentrations were generally observed” value ([9]; both devices, SC 12.5 mg, first collection time point) was 0.25 h, the half-life ([9]; both, Gottingen, minipig, plasma, subcutaneous, 12.5 mg, terminal elimination half-life, range over animals and both devices, where it could be estimated) was 1.81 to 4.9 h and the AUC(0-t) ([9]; female, Gottingen, minipig, plasma, sc, 12.5 mg, AUC(0-t), Female, Autoinjector, Day 8, individual animals) was 2500 ng·h/mL. It also gave an AUC(0-t) ([9]; female, Gottingen, minipig, plasma, sc, 12.5 mg, AUC(0-t), Female, Needle/Syringe, Day 1, individual animals) of 2380 ng·h/mL, a Tmax ([9]; female, Gottingen, minipig, plasma, sc, […], Tmax, Auto injector, Dose Level 12.5, Median value) of 0.25 h and a Tmax ([9]; female, Gottingen, minipig, plasma, sc, […], Tmax, Auto injector, Dose Level 12.5, individual animals) of 0.25 h. It also gave a Tmax ([9]; female, Gottingen, minipig, plasma, sc, […], Tmax, Syringe, Dose Level 12.5, Median value) of 0.25 h, a Tmax ([9]; female, Gottingen, minipig, plasma, sc, […], Tmax, Syringe, Dose Level 12.5, individual animals) of 0.25 h and a half-life ([9]; female, Gottingen, minipig, plasma, sc, […], T½, Auto injector, Dose Level 12.5, Mean) of 3.71 h. It also gave a half-life ([9]; female, Gottingen, minipig, plasma, sc, […], T½, Auto injector, Dose Level 12.5, individual animals) of 3.26 h, a half-life ([9]; female, Gottingen, minipig, plasma, sc, […], T½, Syringe, Dose Level 12.5, Mean) of 3.39 h and a half-life ([9]; female, Gottingen, minipig, plasma, sc, […], T½, Syringe, Dose Level 12.5, individual animals) of 2.74 h. It also gave an AUC(0-t) ([9]; male, Gottingen, minipig, plasma, sc, 12.5 mg, AUC(0-t), Male, Autoinjector, Day 1, individual animals) of 1900 ng·h/mL, an AUC(0-t) ([9]; male, Gottingen, minipig, plasma, sc, 12.5 mg, AUC(0-t), Male, Needle/Syringe, Day 8, individual animals) of 2460 ng·h/mL and a concentration at 24 h ([9]; male, Gottingen, minipig, plasma, sc, […], Concentration of Methotrexate in plasma, Males, Autoinjector, 24 h, individual animals, BQL = below quantitation limit 0.200 ng/mL) of 0.696 ng/mL. It also gave a Tmax ([9]; male, Gottingen, minipig, plasma, sc, […], Tmax, Auto injector, Dose Level 12.5, Median value) of 0.25 h, a Tmax ([9]; male, Gottingen, minipig, plasma, sc, […], Tmax, Auto injector, Dose Level 12.5, individual animals) of 0.25 h and a Tmax ([9]; male, Gottingen, minipig, plasma, sc, […], Tmax, Syringe, Dose Level 12.5, Median value) of 0.25 h. It also gave a Tmax ([9]; male, Gottingen, minipig, plasma, sc, […], Tmax, Syringe, Dose Level 12.5, individual animals) of 0.25 h, a half-life ([9]; male, Gottingen, minipig, plasma, sc, […], T½, Auto injector, Dose Level 12.5, Mean) of 1.92 h and a half-life ([9]; male, Gottingen, minipig, plasma, sc, […], T½, Auto injector, Dose Level 12.5, individual animals) of 1.95 h. For the same compound, the half-life ([9]; male, Gottingen, minipig, plasma, sc, […], T½, Syringe, Dose Level 12.5, individual animals) was 1.91 h.
